Experiments:
IL23-p19 = assay: Compound screening using DC cells: LPS-induced IL-23 (p19/p40) ELISA in IFNγ-primed dendritic cells differentiated from human PBMC; assay type: cell-based; conditions: Dendritic cell, human PBMC-derived dendritic cells, LPS 1 μg/ml, 18 hours, 10 pt
How it was run: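 Dendritic cells were derived from human PBMC over 7 days with GMCSF (100 ng/ml) and IL4 (20 ng/ml), then primed 24 h with 50 ng/ml IFNγ. After 1 h pre-incubation with compound, cells were stimulated with LPS (1 μg/ml final) for 18 h at 37 °C. IL-23 in supernatant measured by p19-capture/p40-detection chemiluminescent ELISA; cytotoxicity checked by CellTiter-Glo.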

IL23p19 = assay: LPS Induced IL23p19 in THP-1 Cells (with IFNγ Primed) Assay; assay type: cell-based; conditions: Homo sapiens, IFNγ primed (50 ng/mL), LPS 1 ug/mL, 18 hours, 10 pt, read-out: IL23-p19 ELISA, THP1-IFNy, LPS, 10 pt EC50
How it was run: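 IFNγ-primed (50 ng/mL, ~18 h) THP-1 cells in RPMI/10% FBS pre-incubated 1 h with serially diluted compound, then stimulated 18 h at 37 °C with 1 ug/mL LPS. Supernatant IL-23p19 quantified by chemiluminescent sandwich ELISA (anti-IL-12 p40/p70 detection); EC50 from curve fit. Toxicity checked by Cell Titer Glo.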

| SMILES | EC50 (IL23-p19) | EC50 (IL23p19) |
| --- | --- | --- |
| COCCN(C)c1nc2cc(N3CCCCC3)c(NC(=O)c3csc(-c4cn[nH]c4)n3)cc2o1 [Compound I-51, N-(2-((2-methoxyethyl)(methyl)amino)-5-(piperidin-1-yl)benzo[d]oxazol-6-yl)-2-(1H-pyrazol-4-yl)thiazole-4-carboxamide] | 41.1 nM | 74.2 nM |
| O=C(Nc1cc2oc(NCCN3CCOCC3)nc2cc1N1CCCCC1)c1csc(-c2cn[nH]c2)n1 [Compound I-52, N-(2-((2-morpholinoethyl)amino)-5-(piperidin-1-yl)benzo[d]oxazol-6-yl)-2-(1H-pyrazol-4-yl)thiazole-4-carboxamide] | 37.1 nM | 20 nM |
| CN(CCN1CCOCC1)c1nc2cc(N3CCCCC3)c(NC(=O)c3ccc(-c4cn[nH]c4)o3)cc2o1 [Compound I-53, N-(2-(methyl(2-morpholinoethyl)amino)-5-(piperidin-1-yl)benzo[d]oxazol-6-yl)-5-(1H-pyrazol-4-yl)furan-2-carboxamide] | 121 nM | 180 nM |
| CN(CCN1CCOCC1)c1nc2cc(N3CCCCC3)c(NC(=O)c3csc(-c4cn[nH]c4)n3)cc2o1 [Compound I-54, N-(2-(methyl(2-morpholinoethyl)amino)-5-(piperidin-1-yl)benzo[d]oxazol-6-yl)-2-(1H-pyrazol-4-yl)thiazole-4-carboxamide] | 60.3 nM | 106 nM |
